Experimental data published in ChEMBL document CHEMBL1140240, “Glutamic acid analogues as potent dipeptidyl peptidase IV and 8 inhibitors” (Bioorg Med Chem Lett, 2005).
pIC50: −log10 of the molar value.

molecular target: Dipeptidyl peptidase 2 (Homo sapiens, UniProt Q9UHL4); experiment: Inhibitory concentration against DPP-II [Quiescent cell proline dipeptidase] or DPP-VII

`COc1cc2c(cc1OC)CN(C(=O)C[C@H](N)C(=O)N1CCC[C@H]1C#N)CC2` showed a pIC50 of 4.51.

molecular target: Dipeptidyl peptidase 4 (Homo sapiens, UniProt P27487)
Sequence (P27487 whole entry): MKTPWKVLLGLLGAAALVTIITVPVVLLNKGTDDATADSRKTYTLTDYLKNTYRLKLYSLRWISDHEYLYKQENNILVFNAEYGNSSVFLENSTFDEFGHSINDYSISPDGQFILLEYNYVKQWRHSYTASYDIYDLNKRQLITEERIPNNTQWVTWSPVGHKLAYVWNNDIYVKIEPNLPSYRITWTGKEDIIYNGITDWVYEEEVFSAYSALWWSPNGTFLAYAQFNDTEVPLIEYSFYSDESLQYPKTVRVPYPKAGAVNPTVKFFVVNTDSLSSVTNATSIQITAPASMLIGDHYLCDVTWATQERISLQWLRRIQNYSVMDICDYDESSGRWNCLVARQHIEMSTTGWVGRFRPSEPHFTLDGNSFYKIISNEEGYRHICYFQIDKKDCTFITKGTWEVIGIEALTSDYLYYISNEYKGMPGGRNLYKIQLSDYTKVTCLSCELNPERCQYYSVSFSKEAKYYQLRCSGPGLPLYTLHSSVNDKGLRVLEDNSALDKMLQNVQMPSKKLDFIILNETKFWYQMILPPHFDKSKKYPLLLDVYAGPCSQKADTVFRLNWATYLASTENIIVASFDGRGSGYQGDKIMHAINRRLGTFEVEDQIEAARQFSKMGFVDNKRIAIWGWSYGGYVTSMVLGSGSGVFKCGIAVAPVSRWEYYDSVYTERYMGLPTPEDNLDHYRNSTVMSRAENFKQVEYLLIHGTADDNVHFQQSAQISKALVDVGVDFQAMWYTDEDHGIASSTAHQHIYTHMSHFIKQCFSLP

Compared with `N#C[C@@H]1CCCN1C(=O)[C@@H](N)CC(=O)N1CCc2ccccc2C1`, `COc1cc2c(cc1OC)CN(C(=O)C[C@H](N)C(=O)N1CCC[C@H]1C#N)CC2` is 0.20 log units higher in pIC50: 7.00 for the first, 7.20 for the second. The second is the more potent here.

`CC(C)(C)C(NC(=O)C[C@H](N)C(=O)N1CCC[C@H]1C#N)c1ccccc1` (stereo not given in full) and `CC(C)C(NC(=O)C[C@H](N)C(=O)N1CCC[C@H]1C#N)c1ccccc1` (stereo not given in full) are within 0.2 log units of each other in pIC50: 6.60 for the first, 6.67 for the second.

Compared with `CCC(NC(=O)C[C@H](N)C(=O)N1CCC[C@H]1C#N)c1ccccc1` (stereo not given in full), `N#C[C@@H]1CCCN1C(=O)[C@@H](N)CC(=O)NC(Cc1ccccc1)c1ccccc1` (stereo not given in full) is 0.25 log units lower in pIC50: 6.85 for the first, 6.60 for the second. The first is the more potent here.

`N#C[C@@H]1CCCN1C(=O)[C@@H](N)CC(=O)N1CCN(C(=O)c2ccccc2)CC1` and `N#Cc1ccc[n+](N2CCN(C(=O)C[C@H](N)C(=O)N3CCC[C@H]3C#N)CC2)c1` are within 0.2 log units of each other in pIC50: 6.91 for the first, 7.06 for the second.

Going from `COc1cc2c(cc1OC)C(Cc1ccccc1)N(C(=O)C[C@H](N)C(=O)N1CCC[C@H]1C#N)CC2` (stereo not given in full) to `COc1cc2c(cc1OC)C(CCO)N(C(=O)C[C@H](N)C(=O)N1CCC[C@H]1C#N)CC2` (stereo not given in full), the pIC50 rises from 7.01 to 7.35 (0.34 log units).

First: COc1ccc(CCNC(=O)C[C@H](N)C(=O)N2CCC[C@H]2C#N)cc1OC
Second: N#C[C@@H]1CCCN1C(=O)[C@@H](N)CC(=O)NCc1ccccc1
The pIC50 of the first is 0.32 log units higher: 6.94 for the first, 6.62 for the second.

First: COc1ccc2c(c1)C(C(C)(C)C)N(C(=O)C[C@H](N)C(=O)N1CCC[C@H]1C#N)CC2 (stereo not given in full)
Second: COc1ccc2c(c1)CCN(C(=O)C[C@H](N)C(=O)N1CCC[C@H]1C#N)C2C(C)(C)C (stereo not given in full)
The pIC50 of the first is 0.43 log units lower: 6.71 for the first, 7.14 for the second. The second is the more potent here.

`COc1cc2c(cc1OC)C(C(C)C)N(C(=O)C[C@H](N)C(=O)N1CCC[C@H]1C#N)CC2` (stereo not given in full) and `COc1cc2c(cc1OC)C(C(C)(C)C)N(C(=O)C[C@H](N)C(=O)N1CCC[C@H]1C#N)CC2` (stereo not given in full) are within 0.2 log units of each other in pIC50: 7.33 for the first, 7.14 for the second.

Compared with `COCC(Cc1ccccc1)NC(=O)C[C@H](N)C(=O)N1CCC[C@H]1C#N` (stereo not given in full), `CC(C)C(Cc1ccccc1)NC(=O)C[C@H](N)C(=O)N1CCC[C@H]1C#N` (stereo not given in full) is 0.22 log units lower in pIC50: 6.74 for the first, 6.52 for the second. The first is the more potent here.

`N#C[C@@H]1CCCN1C(=O)[C@@H](N)CC(=O)N1CCN(C(c2ccc(F)cc2)c2ccc(F)cc2)CC1` showed a pIC50 of 6.64.
